The source made the active and inactive calls. No cut-off for these calls is given here.
What was measured:
[1] = molecular target: T1, Carnitine O-palmitoyltransferase 1, liver isoform (Rattus norvegicus, UniProt P32198); experiment: Inhibition of carnitine palmitoyl transferase (CPT), assessed with isolated rat liver mitochondria
T1 sequence (P32198 whole entry): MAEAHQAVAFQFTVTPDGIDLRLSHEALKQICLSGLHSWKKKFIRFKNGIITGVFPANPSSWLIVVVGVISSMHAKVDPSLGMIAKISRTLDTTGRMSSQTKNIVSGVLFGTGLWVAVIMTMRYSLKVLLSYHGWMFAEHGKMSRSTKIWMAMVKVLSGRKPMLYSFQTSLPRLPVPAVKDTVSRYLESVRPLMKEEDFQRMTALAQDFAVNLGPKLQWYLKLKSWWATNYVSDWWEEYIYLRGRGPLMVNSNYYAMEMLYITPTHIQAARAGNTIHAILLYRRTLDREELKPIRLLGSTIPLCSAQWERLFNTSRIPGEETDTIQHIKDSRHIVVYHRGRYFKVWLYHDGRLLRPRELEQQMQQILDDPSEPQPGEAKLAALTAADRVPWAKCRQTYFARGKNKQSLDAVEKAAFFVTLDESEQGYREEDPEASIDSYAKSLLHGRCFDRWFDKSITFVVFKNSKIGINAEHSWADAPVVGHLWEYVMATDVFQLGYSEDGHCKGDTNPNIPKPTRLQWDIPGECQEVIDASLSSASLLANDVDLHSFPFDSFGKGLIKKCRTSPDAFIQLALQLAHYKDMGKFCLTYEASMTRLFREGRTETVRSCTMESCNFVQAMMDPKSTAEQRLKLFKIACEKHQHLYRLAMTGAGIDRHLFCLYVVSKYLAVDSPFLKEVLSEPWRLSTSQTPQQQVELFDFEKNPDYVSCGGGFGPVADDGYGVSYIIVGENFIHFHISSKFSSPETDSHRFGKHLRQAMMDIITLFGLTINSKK

[2] = molecular target: T1, Carnitine O-palmitoyltransferase 1, liver isoform; experiment: Inhibition of carnitine palmitoyl transferase (CPT), assessed with isolated rat liver mitochondria; Inactive
Rattus norvegicus [3] = organism: Rattus norvegicus; experiment: In vitro inhibition of [1-14C]palmitate oxidation in rat hemidiaphragms; Inactive; format: functional
Rattus norvegicus [4] = experiment: Rat glucose tolerance in vivo expressed as minimum effective dose (MED), it is the lowest dose giving a statistically significant (p<0.05) lowering at any time point; Inactive; format: functional, organism-based
Rattus norvegicus [5] = experiment: Rat glucose tolerance test was determined in vivo at 100 mg/kg perorally; Inactive; format: functional, organism-based; set-up: dose 100 mg/kg
Rattus norvegicus [6] = organism: Rattus norvegicus; experiment: In vitro inhibition of [1-14C]palmitate oxidation in rat hemidiaphragms; format: functional
Rattus norvegicus [7] = experiment: Rat glucose tolerance in vivo expressed as minimum effective dose (MED), it is the lowest dose giving a statistically significant (p<0.05) lowering at any time point; format: functional; settings: read-out: MED
Rattus norvegicus [8] = experiment: Rat glucose tolerance test was determined in vivo at 100 mg/kg perorally; format: functional; settings: route oral
Rattus norvegicus [9] = experiment: Rat glucose tolerance test was determined in vivo at 75 mg/kg perorally; format: functional; settings: route oral
Rattus norvegicus [10] = experiment: Rat glucose tolerance test was determined in vivo at 10 mg/kg perorally; format: functional; settings: route oral

`CCCCCCCCCCCCCC[C@]1(C(=O)OC)CO1` gave an IC50 [1] of 40 nM.

`CCCCCCCCCCCCCC[C@]1(C(=O)SCCNC(=O)CCNC(=O)C(O)C(C)(C)COP(=O)(O)OP(=O)(O)OC[C@H]2O[C@@H](n3cnc4c(N)ncnc43)[C@H](O)[C@@H]2OP(=O)(O)O)CO1` (some centres undefined) showed an IC50 [1] of 20 nM.

With `CCCCCCCCCCCCCC[C@@]1(C(=O)SCCNC(=O)CCNC(=O)C(O)C(C)(C)COP(=O)(O)OP(=O)(O)OC[C@H]2O[C@@H](n3cnc4c(N)ncnc43)[C@H](O)[C@@H]2OP(=O)(O)O)CO1` (some centres undefined) the IC50 [2] was “Not Active”.

`CCCCCCCCCCCCCC[C@@]1(C(=O)O)CO1` was tested, and the IC50 (Rattus norvegicus [3]) was “Not Active”, the MED (Rattus norvegicus [4]) was “inactive” and the Lowering (Rattus norvegicus [5]) was “inactive”. For the same molecule, the IC50 [2] was “Not Active”.

Molecule `CCCCCCCCCCCCCCC1(C(=O)O)CO1` (racemic) [PALMOXIRATE] has an IC50 (Rattus norvegicus [6]) of 2200 nM, a minimal effective dose (Rattus norvegicus [7]) of 5 mg/kg and a Lowering (Rattus norvegicus [8]) of 53%. For the same molecule, the IC50 [1] was 40 nM.

`CCCCCCCCCCCCCCC1(C(=O)OC)CO1` (racemic) [METHYL PALMOXIRATE] was tested, and the minimal effective dose (Rattus norvegicus [7]) was 2 mg/kg, the Lowering (Rattus norvegicus [9]) was 45% and the IC50 [1] was 90 nM.

`CCCCCCCCCCCCCCC1(C(=O)SCCNC(=O)CCNC(=O)C(O)C(C)(C)COP(=O)(O)OP(=O)(O)OC[C@H]2O[C@@H](n3cnc4c(N)ncnc43)[C@H](O)[C@@H]2OP(=O)(O)O)CO1` (mixture of isomers) showed an IC50 [1] of 30 nM.

`CCCCCCCCCCCCCC[C@]1(C(=O)O)CO1` gave an IC50 (Rattus norvegicus [6]) of 1200 nM, a minimal effective dose (Rattus norvegicus [7]) of 5 mg/kg and a Lowering (Rattus norvegicus [10]) of 25%. It also gave an IC50 [1] of 30 nM.

— ChEMBL document CHEMBL1123763, “Resolution of (+/-)-2-tetradecyloxiranecarboxylic acid. Absolute configuration and chiral synthesis of the hypoglycemic R enantiomer and biological activity of enantiomers” (J Med Chem, 1987)
